Here are results for 5 molecules from patent US5236815A, “Class of masked stabilizers in photographic materials or developing solutions” (priority 1991, dated 1993).

Each structure is given as a SMILES string. Structures can show the parent of a compound that is named as a salt. Where two headings read alike, the source gives them in different places.

For data set [1] the following is noted: for solubility at room temperature: water.
For data set [2] the following is noted: alcoholic solution of 5-nitroindazole vs aqueous solution of I-2; in words.
Procedure: A control composition (A) containing 100 g of inert gelatin in 1600 ml of water was prepared. The solution further contained matting agents and anti-halo dyes. In a second control composition (8) 300 ml of water was replaced by 300 ml of a 1% alcoholic solution of 5-nitroindazole. […] In each sample pH was adjusted to 6.5.
Data set [3] is classed as physicochemical. The conditions noted are these: pH 11.5. The method, then:
To said basic composition were added 0.46 mmole/l of water soluble 5-nitroindazole precursors according to the invention as specified in table 1 below. In a comparison developer 0.46 mmole of 5-nitroindazole (5-NI) was added per liter. […] Therefore a second comparison developer sample was included in which 5-nitroindazole was first dissolved in 30 ml of N-methyl-pyrrolidone (part B) and then added to the solution, replacing 30 ml of water. In each sample the pH was readjusted to 11.5 with sodium hydroxide.

Consider `O=C(c1ccccc1S(=O)(=O)[O-])n1ncc2cc([N+](=O)[O-])ccc21.[K+]`, for which, in data set [1] (room temperature), the “solubility at room temperature” value is on record as 1.7 g/100 ml. In addition, in data set [2], the “instability problems in gelatineous compositions” value is reported as “can be overcome”. For `c1ccc2[nH]nnc2c1` [benzotriazole], in data set [1], the “solubility at room temperature” value is 1.3 g/100 ml. Take `O=[N+]([O-])c1ccc2[nH]ncc2c1` [5-nitroindazole]: the solubility in water in data set [1] is reported as 0.02 g/100 ml of water. The “instability problems in gelatineous compositions” value in data set [2] was “instability problems”. The “solubility in developer solution” value in data set [3] is reported as “only slightly soluble”. For `O=C(c1ccccc1S(=O)(=O)O)n1nnc2ccccc21` [Compound I-3, 1-(2-sulphonatobenzoyl)-benzotriazole triethylamine salt], the “solubility at room temperature” value in data set [1] is recorded as 5.8 g/100 ml. As for `Cc1ccc2[nH]nnc2c1` [5-methylbenzotriazole], the solubility in water in data set [1] (background section, no temperature given) is given as 0.5 g/100 ml of water.
